Data taken from patent publication US20200308299A1, “ANTI-GPC-1 ANTIBODY” (National University Corporation Kochi University, priority 2017, published 2020).
Non-standard residues stand in square brackets, D forms with d. Residues, ends and D or L forms follow the SMILES beside them. *: point of attachment. Dolaproine = CO[C@@H]([C@@H]1CCCN1)[C@@H](C)C(=O)O; Dil = CC[C@H](C)[C@H](NC)[C@@H](CC(=O)O)OC; X1 = C[C@@H](N*)[C@@H](O)c1ccccc1; NMeV = CN[C@H](C(=O)O)C(C)C

System: TE14 cells
Test: Anticancer agent sensitivity of TE14 cells (CellTiter-Glo cell viability)
Format: cell-based
Conditions: cultured 6 days
Protocol: 2000 TE14 cells were added to a 96-well plate at 90 μl. The cells were cultured overnight at 37° C. in a 5% CO2 incubator. The next day, 10 μl of an anticancer agent concentrated 10-fold relative to the final concentration was added to each well, so that the total amount was 100 μl. The cells were cultured for 6 days at 37° C. in a 5% CO2 incubator. The cell viability was measured by using a CellTiter-Glo Luminescent Cell Viability Assay reagent to detect the amount of ATP. RPMI1640+10% FBS+1% PS was used as the medium. MMAE (model number: 474645-27-7, ALB Technology) and MMAF (model number: 745017-94-1, ALB Technology) were used as the anticancer agent.

CC[C@H](C)[C@@H]([C@@H](CC(=O)N1CCC[C@H]1[C@H](OC)[C@@H](C)C(=O)N[C@@H](Cc1ccccc1)C(=O)O)OC)N(C)C(=O)[C@@H](NC(=O)[C@@H](NC)C(C)C)C(C)C [MMAF, monomethyl auristatin-F] (H-[NMeV]V[Dil][Dolaproine]F-OH)
IC50: 26.8 nM

CC[C@H](C)[C@@H]([C@@H](CC(=O)N1CCC[C@H]1[C@H](OC)[C@@H](C)C(=O)N[C@H](C)[C@@H](O)c1ccccc1)OC)N(C)C(=O)[C@@H](NC(=O)[C@@H](NC)C(C)C)C(C)C [MMAE, monomethyl auristatin-E] (H-[NMeV]V[Dil][Dolaproine]-X1)
IC50: 0.926 nM
